The results in this text go back to patent publication US7101890B2, “Benzazepine derivatives, drugs containing these and use of the same for producing drugs” (priority 1996, dated 2006).

Like-named read-outs stand apart in the source and are kept apart here.

Data set [1] concerns the target acetylcholine esterase (Homo sapiens, UniProt P06276). Briefly: Inhibition of acetylcholine esterase, modified method of Ellmann, human serum. It is filed as biochemical. As to conditions: ACHE inhibition. (In general: In Ellman's method for cholinesterases, released thiocholine reacts with DTNB.)
Description: The values were given as a percentage of the comparison sample and the inhibiting concentration (IC^50) was calculated from the course of the curve.
Setting [2] is: human serum from a pool of 10 test subjects, 37° C., pH 7.8, compounds of general formula (I).

acetylcholine esterase, sequence (P06276 29-602): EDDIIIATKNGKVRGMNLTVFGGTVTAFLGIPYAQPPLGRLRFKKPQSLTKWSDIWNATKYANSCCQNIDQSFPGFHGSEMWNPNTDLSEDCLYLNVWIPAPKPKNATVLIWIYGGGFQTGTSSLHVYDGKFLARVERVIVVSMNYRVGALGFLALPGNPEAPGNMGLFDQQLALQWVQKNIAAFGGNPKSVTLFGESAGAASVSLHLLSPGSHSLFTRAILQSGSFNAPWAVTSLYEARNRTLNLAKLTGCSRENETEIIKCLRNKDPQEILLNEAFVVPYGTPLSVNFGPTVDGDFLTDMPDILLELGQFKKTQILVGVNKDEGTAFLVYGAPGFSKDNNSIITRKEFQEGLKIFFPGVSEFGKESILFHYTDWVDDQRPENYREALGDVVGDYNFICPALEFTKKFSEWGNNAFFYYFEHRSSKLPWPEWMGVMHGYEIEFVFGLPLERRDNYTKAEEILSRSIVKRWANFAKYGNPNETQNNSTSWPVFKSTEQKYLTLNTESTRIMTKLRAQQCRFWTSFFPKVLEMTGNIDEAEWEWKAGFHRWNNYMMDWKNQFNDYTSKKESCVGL

Usually melting point stands for the temperature of the solid-liquid transition. `O=[N+]([O-])c1ccc(N2CC3CC2CN3Cc2ccccc2)cc1` (stereo not shown): the melting point lay in the range of 170 to 173 °C.

Compound `O=[N+]([O-])c1ccccc1N1CC2CC1CN2Cc1ccccc1` (stereo not shown) yielded a melting point of 107 to 108 °C.

`c1ccc(N2CC3CC2CN3)cc1` (stereo not shown) returned a melting point of 120 to 130 °C.

`Cc1ccc(N2CC3CC2CN3)cc1` (stereo not shown) gave a melting point of 130 to 140 °C.

In the case of `Clc1ccc(N2CC3CC2CN3)cc1` (stereo not shown), the melting point lay within 120 to 130 °C.

With `Fc1ccc(N2CC3CC2CN3)cc1` (stereo not shown), the melting point was 120 to 130 °C.

Turning to `COc1cc(Br)c2c3c1OC1C[C@@H](O)C=CC31CCN(C)C2=O` (mixture of isomers), the melting point fell in the range of 188 to 189 °C.

As to `CCCCCCN1CCC23C=CC(O)CC2Oc2c(OC)cc(Br)c(c23)C1` (racemic) [Substance 49], the “IC50 in μMol” value in data set [1] (setting [2]) is recorded as “insol”.

Regarding `C#CCN1CCC23C=CC(O)CC2Oc2c(OC)cc(Br)c(c23)C1` (racemic) [Substance 50], the “IC50 in μMol” value in data set [1] (setting [2]) is on record as “insol”.

For the compound `COc1cc(Br)c2c3c1OC1CC(O)C=CC31CCN(CC#N)C2` (racemic) [Substance 52], in data set [1] (setting [2]), the “IC50 in μMol” value was “insol”.

As for `COC(=O)CCC(=O)N1CCC23C=CC(O)CC2Oc2c(OC)cc(Br)c(c23)C1` (racemic) [Substance 61], the “IC50 in μMol” value in data set [1] (setting [2]) is “insol”.

`COC(=O)N1CCC23C=CC(O)CC2Oc2c(OC)cc(Br)c(c23)C1` (racemic) [Substance 62]: in data set [1] (setting [2]), the “IC50 in μMol” value is given as “insol”.

Take `COc1ccc2c3c1OC1CC(=NN(C)C)C=CC31CCN(C)C2` (racemic) [Substance 82]: in data set [1] (setting [2]), the “IC50 in μMol” value is on record as “insol”.

For `COc1ccc2c3c1OC1CC(=NNC(N)=O)C=CC31CCN(C)C2` (racemic) [Substance 87], the “IC50 in μMol” value in data set [1] (setting [2]) is given as “insol”.

As to `COc1ccc2c3c1OC1CC(=NO)C=CC31CCN(C)C2` (single isomer, unassigned) [Substance 77, narwedine Oxime], in data set [1] (setting [2]), the “IC50 in μMol” value is on record as “insol”.

A word on the IC50: it is the concentration that gives 50% inhibition. Consider `CCCCNC(=S)OC1C=CC23CCN(C)Cc4ccc(OC)c(c42)OC3C1` (single isomer, unassigned; (+)) [Substance 24, (+)-Galanthamin-n-butylthiocarbamate], for which the IC50 in data set [1] (human serum from a pool of 10 test subjects, 37° C., pH 7.8, compounds of general formula (I), read-out: IC50 in μMol) came out at 85 µM.

As to `COc1ccc2c3c1OC1CC(O)C=CC31CC[N+](C)([O-])C2` (single isomer, unassigned; (-)) [Substance 98, (−)-Galanthamine-N-oxide], in data set [1] (setting [2]), the “IC50 in μMol” value was “insol”.

On to `COc1ccc2c3c1O[C@H]1CC(=NO)C=C[C@@]31CCN(C)C2` [Substance 76, narwedine Oxime], for which the “IC50 in μMol” value in data set [1] (setting [2]) is recorded as “insol”.

Regarding `COc1ccc2c(c1O)C13C=C[C@@H](O)CC1N(CC3)C2` (stereo partly shown) [Substance 115, 35-4,4a-dihydro-9-methoxy-10-hydroxy (3H,6H) (5,10b) ethanophenanthridine-3-ol], in data set [1] (human serum pool, compounds of formula (II), read-out: IC50), the IC50 was above 150 µM.
